≈ marks a conversion by molar mass, not a printed value.
Legend:
Yellow fever virus [1] = assay: Antiviral activity against Yellow fever virus assessed as reduction in cytopathic effect by neutral red uptake assay; type: functional, organism-based
Yellow fever virus [2] = assay: Antiviral activity against Yellow fever virus; type: functional, organism-based
Yellow fever virus [3] = assay: Antiviral activity against Yellow fever virus African green monkey Vero cells assessed as reduction in cytopathic effect; type: functional, organism-based
Yellow fever virus [4] = assay: Antiviral activity against Yellow fever virus 17D assessed as reduction in cytopathic effect incubated for 30 mins; type: functional, organism-based; details: 0.5 h
[5] = Cytotoxicity against African green monkey Vero cells assessed as inhibition of cell growth by neutral red uptake assay; type: toxicity, cell-based, Chlorocebus sabaeus
Yellow fever virus [6] = assay: Antiviral activity against Yellow fever virus 17D infected in African green monkey Vero assessed as reduction in cytopathic effect preincubated with compound for 5 mins followed by viral infection and measured at 72 to 120 hrs by neutral red uptake assay; type: functional, organism-based
[7] = Cytotoxicity against African green monkey Vero cells assessed as inhibition of cell growth by visual analysis; type: toxicity, cell-based, Chlorocebus sabaeus
Yellow fever virus [8] = assay: Antiviral activity against Yellow fever virus 17D infected in African green monkey Vero assessed as reduction in cytopathic effect preincubated with compound for 5 mins followed by viral infection and measured at 72 to 120 hrs by visual analysis; type: functional, organism-based
[9] = Selectivity index, ratio of IC50 for cytotoxicity against African green monkey Vero cells assessed as inhibition of cell growth by neutral red uptake assay to EC50 for antiviral activity against Yellow fever virus 17D infected in African green monkey Vero assessed as reduction in cytopathic effect; type: toxicity, cell-based; details: read-out: Ratio IC50/EC50
[10] = Selectivity index, ratio of IC50 for cytotoxicity against African green monkey Vero cells assessed as inhibition of cell growth by visual analysis to EC50 for antiviral activity against Yellow fever virus 17D infected in African green monkey Vero assessed as reduction in cytopathic effect; type: toxicity, cell-based; details: read-out: Ratio IC50/EC50
[11] = Selectivity index, ratio of CC50 for cytotoxicity against African green monkey Vero cells to EC50 for antiviral activity against Yellow fever virus 17D infected in African green monkey Vero assessed as reduction in cytopathic effect; type: toxicity, cell-based; details: read-out: Ratio CC50/EC50
Yellow fever virus [12] = assay: Antiviral activity against Yellow fever virus 17D infected in African green monkey Vero assessed as reduction in virus yield preincubated with compound for 5 mins followed by viral infection and measured at 72 to 120 hrs; type: functional; details: time 4325-7205 min
Yellow fever virus [13] = assay: Antiviral activity against Yellow fever virus 17D infected in African green monkey Vero assessed as reduction in cytopathic effect preincubated with compound for 5 mins followed by viral infection and measured at 72 to 120 hrs; type: functional, organism-based
Yellow fever virus [14] = assay: Antiviral activity against Yellow fever virus 17D infected in African green monkey Vero assessed as reduction in cytopathic effect preincubated with compound for 5 mins followed by viral infection and measured at 7 days; type: functional, organism-based
Yellow fever virus [15] = assay: Antiviral activity against Yellow fever virus 17D infected in Huh-7 cells assessed as reduction in cytopathic effect; type: functional, organism-based
Yellow fever virus [16] = assay: Antiviral activity against Yellow fever virus infected in human A549 cells assessed as reduction in virus replication; type: functional, organism-based
[17] = Selectivity index, ratio of CC50 for cytotoxicity against human A549 cells to EC50 for antiviral activity against Yellow fever virus infected in human A549 cells assessed as reduction in virus replication; type: toxicity, cell-based; details: read-out: Ratio CC50/EC50
[18] = Selectivity index, ratio of CC50 for cytotoxicity against human Huh-7 cells to EC50 for antiviral activity against wild typeYellow fever virus infected in human Huh-7 cells assessed as reduction in virus replication; type: toxicity, cell-based; details: read-out: Ratio CC50/EC50
Yellow fever virus [19] = assay: Antiviral activity against wild typeYellow fever virus infected in human Huh-7 cells assessed as reduction in virus replication; type: functional, organism-based

With `NC(=O)C1(N2CCCCC2)CCN(C(=O)CSc2nc3ccccc3o2)CC1` the EC50 (Yellow fever virus [1]) was 7.4 µM.
For `CCn1c(=O)/c(=C2\Sc3c(F)cccc3N2C)s/c1=C\c1cccc[n+]1C`, the EC50 (Yellow fever virus [2]) was < 1 µM.
`Nc1c(C(=O)Nc2nnc(-c3ccccc3)s2)sc2nc3c(cc12)CCCCC3` showed an EC50 (Yellow fever virus [3]) of 6.97 µM.
Work on `C/C(=N\Nc1ccccc1)c1sc(-c2cc(Cl)nc(Oc3ccc(Cl)cc3)c2)nc1C` yielded an EC50 (Yellow fever virus [4]) of 1.6 µM.
In the case of `O=c1[nH]c(Nc2ccc(F)cc2)nnc1Cc1ccc(F)cc1`, the IC50 [5] is reported as > 100 µg/mL and the EC50 (Yellow fever virus [6]) is reported as > 100 µg/mL.
With `Cc1ccc(Cc2nnc(Nc3ccccc3F)[nH]c2=O)cc1` the IC50 [7] was 43 µg/mL (≈ 139 µM), the EC50 (Yellow fever virus [8]) was 5 µg/mL (≈ 16.1 µM) and the IC50 [5] was > 100 µg/mL. The selectivity ratio [9] was > 19, the EC50 (Yellow fever virus [6]) was 1 µg/mL (≈ 3.22 µM) and the selectivity ratio [10] was 8.6.
In the case of `COc1ccccc1Nc1nnc(Cc2ccc(C)cc2)c(=O)[nH]1`, the IC50 [7] is reported as 27 µg/mL (≈ 83.8 µM), the EC50 (Yellow fever virus [8]) is reported as 4.2 µg/mL (≈ 13 µM) and the IC50 [5] is reported as > 100 µg/mL. The selectivity ratio [9] was > 31, the EC50 (Yellow fever virus [6]) was 0.94 µg/mL (≈ 2.92 µM) and the selectivity ratio [11] was > 36. It also gave an EC90 (Yellow fever virus [12]) of 50 µg/mL (≈ 155 µM), an EC50 (Yellow fever virus [13]) of 13 µM and an EC50 (Yellow fever virus [14]) of 4.2 µg/mL (≈ 13 µM). It also gave a selectivity ratio [10] of 6.4.
`COc1ccc(OC)c(Nc2nnc(Cc3ccc(C)cc3)c(=O)[nH]2)c1` gave an IC50 [5] of 16 µg/mL (≈ 45.4 µM), a selectivity ratio [9] of 5.5 and an EC50 (Yellow fever virus [6]) of 2.9 µg/mL (≈ 8.23 µM).
In the case of `CC(C)c1ccc(Cc2nnc(NCCN3CCOCC3)[nH]c2=O)cc1`, the IC50 [5] is reported as > 100 µg/mL and the EC50 (Yellow fever virus [6]) is reported as > 100 µg/mL.
In the case of `CCOc1ccc(Nc2nnc(Cc3ccc(C)cc3)c(=O)[nH]2)cc1`, the IC50 [5] is reported as > 100 µg/mL and the EC50 (Yellow fever virus [6]) is reported as > 100 µg/mL.
With `CCOC(=O)c1ccc(Nc2nnc(Cc3ccc(C)cc3)c(=O)[nH]2)cc1` the IC50 [5] was > 100 µg/mL and the EC50 (Yellow fever virus [6]) was > 100 µg/mL.
For `Cc1ccc(Cc2nnc(Nc3ccc(F)cc3)[nH]c2=O)cc1`, the IC50 [7] was 51 µg/mL (≈ 164 µM), the EC50 (Yellow fever virus [8]) was 10 µg/mL (≈ 32.2 µM) and the IC50 [5] was > 100 µg/mL. For the same compound, the selectivity ratio [9] was > 14, the EC50 (Yellow fever virus [6]) was 1 µg/mL (≈ 3.22 µM) and the selectivity ratio [10] was 5.1.
With `Cc1ccc(Cc2nnc(NC3CCCCC3)[nH]c2=O)cc1` the IC50 [5] was > 100 µg/mL, the selectivity ratio [9] was > 3.3 and the EC50 (Yellow fever virus [6]) was 30 µg/mL (≈ 101 µM).
For `COc1ccc(Nc2nnc(Cc3ccc(C(C)C)cc3)c(=O)[nH]2)cc1OC`, the IC50 [5] was > 38 µg/mL and the EC50 (Yellow fever virus [6]) was > 38 µg/mL.
With `CCOc1ccccc1Nc1nnc(Cc2ccc(C)cc2)c(=O)[nH]1` the IC50 [5] was > 100 µg/mL and the EC50 (Yellow fever virus [6]) was > 100 µg/mL.
For `Cc1ccc(Cc2nnc(Nc3cccc(F)c3)[nH]c2=O)cc1`, the IC50 [7] was 51 µg/mL (≈ 164 µM), the EC50 (Yellow fever virus [8]) was 6.2 µg/mL (≈ 20 µM) and the IC50 [5] was > 100 µg/mL. For the same compound, the selectivity ratio [9] was > 14, the EC50 (Yellow fever virus [6]) was 1 µg/mL (≈ 3.22 µM) and the selectivity ratio [11] was > 53. For the same compound, the EC90 (Yellow fever virus [12]) was 65 µg/mL (≈ 209 µM), the EC50 (Yellow fever virus [13]) was 20 µM and the EC50 (Yellow fever virus [14]) was 6.2 µg/mL (≈ 20 µM). It also gave a selectivity ratio [10] of 8.2.
In the case of `Cc1cccc(Nc2nnc(Cc3ccc(F)cc3)c(=O)[nH]2)c1C`, the IC50 [5] is reported as > 100 µg/mL and the EC50 (Yellow fever virus [6]) is reported as > 100 µg/mL.
For `Cc1ccc(Cc2nn3c(=O)c4ccccc4nc3[nH]c2=O)cc1`, the IC50 [5] was > 100 µg/mL and the EC50 (Yellow fever virus [6]) was > 100 µg/mL.
`CC[C@H](C)[C@@H]1N=C(c2ccccc2)c2cc(Cl)ccc2N(CC(=O)O)C1=O` gave an EC50 (Yellow fever virus [15]) of 0.21 µM.
For `Cc1ccc(Cc2nnc(Nc3ccccc3C)[nH]c2=O)cc1`, the IC50 [5] was > 100 µg/mL, the selectivity ratio [9] was > 5.6 and the EC50 (Yellow fever virus [6]) was 18 µg/mL (≈ 58.8 µM).
For `CC(=O)Nc1ccc(Nc2nnc(Cc3ccc(C)cc3)c(=O)[nH]2)cc1`, the IC50 [5] was > 100 µg/mL and the EC50 (Yellow fever virus [6]) was > 100 µg/mL.
With `C[C@@H]1[C@@H](CO)O[C@@H](n2ccc(N)nc2=O)[C@]1(C)O` the EC50 (Yellow fever virus [2]) was 0.7 µM.
In the case of `COc1ccc(Nc2nnc(Cc3ccc(C)cc3)c(=O)[nH]2)cc1OC`, the IC50 [5] is reported as 18 µg/mL (≈ 51.1 µM), the selectivity ratio [9] is reported as 1.6 and the EC50 (Yellow fever virus [6]) is reported as 11 µg/mL (≈ 31.2 µM).
For `Cc1ccc(Cc2nnc(Nc3cccc(C)c3)[nH]c2=O)cc1`, the IC50 [7] was 58 µg/mL (≈ 189 µM), the EC50 (Yellow fever virus [8]) was 10 µg/mL (≈ 32.6 µM) and the IC50 [5] was > 100 µg/mL. For the same compound, the selectivity ratio [9] was > 29, the EC50 (Yellow fever virus [6]) was 0.48 µg/mL (≈ 1.57 µM) and the selectivity ratio [11] was 23. It also gave an EC90 (Yellow fever virus [12]) of 158 µg/mL (≈ 516 µM), an EC50 (Yellow fever virus [13]) of 33 µM and an EC50 (Yellow fever virus [14]) of 10 µg/mL (≈ 32.6 µM).
With `Cc1ccc(Cc2nnc(Nc3cc(C)ccc3C)[nH]c2=O)cc1` the IC50 [5] was > 100 µg/mL, the selectivity ratio [9] was > 4.3 and the EC50 (Yellow fever virus [6]) was 23 µg/mL (≈ 71.8 µM).
For `Cc1ccc(Cc2nnc(Nc3ccccc3)[nH]c2=O)cc1`, the IC50 [7] was 16 µg/mL (≈ 54.7 µM), the EC50 (Yellow fever virus [8]) was 7.4 µg/mL (≈ 25.3 µM) and the IC50 [5] was > 100 µg/mL. For the same compound, the selectivity ratio [9] was > 7.1, the EC50 (Yellow fever virus [6]) was 6.2 µg/mL (≈ 21.2 µM) and the selectivity ratio [10] was 2.2.
In the case of `COC(=O)c1ccc(Nc2nnc(Cc3ccc(C)cc3)c(=O)[nH]2)cc1`, the IC50 [5] is reported as > 100 µg/mL and the EC50 (Yellow fever virus [6]) is reported as > 100 µg/mL.
In the case of `COc1ccc(Nc2nnc(Cc3ccc(C)cc3)c(=O)[nH]2)c(OC)c1`, the IC50 [7] is reported as 58 µg/mL (≈ 165 µM), the EC50 (Yellow fever virus [8]) is reported as 3.5 µg/mL (≈ 9.93 µM) and the IC50 [5] is reported as > 100 µg/mL. The selectivity ratio [9] was > 17, the EC50 (Yellow fever virus [6]) was 1 µg/mL (≈ 2.84 µM) and the selectivity ratio [11] was 51. For the same compound, the EC90 (Yellow fever virus [12]) was 28 µg/mL (≈ 79.5 µM), the EC50 (Yellow fever virus [13]) was 9.9 µM and the EC50 (Yellow fever virus [14]) was 3.5 µg/mL (≈ 9.93 µM). It also gave a selectivity ratio [10] of 17.
Compound `O=c1cnn([C@@H]2O[C@H](CO)[C@@H](O)[C@H]2O)c(=O)[nH]1` [6-AZAURIDINE] has an EC50 (Yellow fever virus [2]) of 46 µM.
For `O=C1OC2(c3ccccc31)c1cc(I)c(O)c(I)c1Oc1c2cc(I)c(O)c1I` [ERYTHROSINE], the EC50 (Yellow fever virus [16]) was 0.57 µM and the selectivity ratio [17] was > 263.
In the case of `NC(=O)c1nc(F)cnc1O` [FAVIPIRAVIR], the EC50 (Yellow fever virus [2]) is reported as 330 µM.
`NC(=O)c1ncn([C@@H]2O[C@H](CO)[C@@H](O)[C@H]2O)n1` [RIBAVIRIN] gave a selectivity ratio [18] of 58 and an EC50 (Yellow fever virus [19]) of 4.9 µM.
In the case of `CC(C)OC(=O)[C@H](C)N[P@](=O)(OC[C@H]1O[C@@H](n2ccc(=O)[nH]c2=O)[C@](C)(F)[C@@H]1O)Oc1ccccc1` [SOFOSBUVIR], the selectivity ratio [18] is reported as 90 and the EC50 (Yellow fever virus [19]) is reported as 4.2 µM.
